This is an account of results in patent US9463338B2, “Derivatives of the sinapinic acid” (PHARMASYNTHESE, priority 2013, dated 2016).

Data set [1] has as its system explants of adipose tissues. Put plainly: Slimming effect: glycerol released in culture medium of adipose tissue explants. The class given is cell-based, human. The protocol: The activity of the compounds of the invention on the adipocytes has been assessed. To do so, tests have been carried out on explants of adipose tissues that are kept alive according to the following experimental protocol. The products to be tested are introduced in the culture medium. After 9 days of treatment, the activity is assessed through an assay of the glycerol released in the culture medium. In order to be able to compare the potential activity of the molecules, caffeine (Sigma ref C-0750 batch 127F0396), which is known for its activity on the adipocytes (Studlar M. […] The explants are prepared from a tummy tuck ([…]-AB-40) carried out on a donor. 54 explants of tissues have been prepared and kept alive in a medium which is supplemented with penicillin/streptomycin antibiotics (Gibco ref 15140 batch 918578) at 37° C. and with 5% of CO2. The treatment has been carried out, on 3 explants, by incorporating 100 μl of the product (which is in turn at a 2% concentration in the adequate solvent, DMSO) in 2 ml of the culture medium on days J0, J2, J3, J5 and J7. Caffeine has been diluted to the desired concentration in the culture medium on these same days. The control explants have undergone no treatment. On J0, the 3 explants have been collected and frozen at -80° C. On J9, the remaining explants have been collected and preserved under the same conditions. The extraction of lipids from the culture medium has been carried out according to a tested procedure. The assay of the glycerol of the culture medium has been carried out using a glycerol assay kit (Megazyme, K-GROL) in the form of 96-well microplates and reading has been made at 340 nm with a Tecam Infinite M200 microplate reader associated to the Magellan software.

Data set [2] deals with normal human dermal fibroblasts. Put plainly: Neo synthesis of elastin in monolayer cultures of normal human dermal fibroblasts. The class given is cell-based. The conditions noted are these: 10 ng/ml, 96 hours. The method, then: (§1) The test system consists of monolayers of adult normal human dermal fibroblasts obtained by cultivating cells collected from a tummy tuck carried out on a person.
The used reference activator is the ascorbic acid at 100 μg/ml.
The cells have been incubated for 96 hours in the absence (control) or in the presence of the reference product or of increasing concentrations of the active ingredient that is being tested (10 ng/ml; 100 ng/ml; 500 ng/ml).
(§2) The compound to be tested is solubilized in 1 mg/ml in DMSO, then diluted in the cells incubation medium, with a constant concentration of 0.1% (v/v) in DMSO.
Upon completion of the incubation period, the elastin contained in the incubation medium of the explants has been quantified by a spectrophotometric method.
Upon completion of the incubation period, the proteins contained in the cellular lysate have been quantified by a spectrophotometric method (Bradford method—Bradford M. (1976) Anal. Biochem., 72, 248-254).
The results are given in the form of μg of elastin per mg of protein (average+/− the standard deviation, S.D.).

Data set [3] shares this test system. The experiment in a line: Production of progerin in monolayer cultures of normal human dermal fibroblasts (ELISA). The class given is cell-based. The conditions noted are these: for Progerin % DMSO / Progerin Average / Progerin, individual values / Progerin Difference (%): 96 hours; for Progerin Difference (%): vs DMSO; for neo synthesis of progerin: under the retained experimental conditions.
Description: In order to study the influence of the compounds of the invention on the concentration of progerin in the cells, the assay method described by C. Verdy, J.-E. Branka and N. Mekideche in <<Quantitative assessment of lactate and progerine production in normal human cutaneous cells during normal ageing: effect of an alaria esculenta extract>>, Int. J. Cosmetic Science, 2011, 1-5, has been used.
as §1
Insulin at 10 nM has been used as a reference product in this study. […]
as §2
Upon completion of the incubation period, on the one hand, the progerin has been quantified in the cellular lysates (obtained by ultrasonic action) through a sensitive and specific ELISA assay, and on the other hand, the proteins that are contained in the cellular lysates have been quantified by a spectrophotometric method (Bradford method—Bradford M. (1976) Anal. Biochem., 72, 248-254).
(§3) The statistical significance of the differences that have been observed between the <<Control>> and the <<reference product>> conditions, has been assessed through a Student test. The statistical significance of the differences that have been observed between the <<Check>> and the <<test products>> conditions, has been assessed through a one-way analysis of variance (One Way ANOVA) followed by a Holm-Sidak test (*:p<0.05).

Data set [4] shares this test system. The experiment in a line: Production of type I pro-collagen in monolayer cultures of normal human dermal fibroblasts (E.I.A.). The class given is cell-based. The conditions noted are these: 48 hours; for Procollagen Difference (%): vs DMSO. The protocol: as §1
The used reference activator is the Transforming Growth Factor β (TGF-β) at 1 ng/ml. […]
as §2
Upon completion of the incubation period, the type I pro-collagen contained in the fibroblasts incubation media has been quantified using a sensitive and specific E.I.A. kit.
Upon completion of the incubation period, the proteins contained in the cellular lysates have been quantified by a spectrophotometric method (Bradford method—Bradford M. (1976) Anal. Biochem., 72, 248-254).
as §3
The results are given in the form of μg of type I pro-collagen per mg of protein (average+/− the standard deviation, S.D.) and are reported in the following Table 5.

Molecules are shown by their SMILES. “And” between values parts separate entries of the source, which are not always exact repeats. Identical values can stand only once. Marks after values point to notes of the source that are not given here.

For the compound `CCCCCCCCCCCCCCCCNC(=O)/C=C/c1cc(OC)c(OC(C)=O)c(OC)c1` [Compound 22], in data set [1] (after 9 days of treatment), the “Glycerol % in comparison with caffeine” value amounted to 124%, the “slimming action higher than that of caffeine” value amounted to 24% and the “slimming activity in comparison with caffeine” value is “enhanced slimming activity”. The “Glycerol Average” value in data set [1] (glycerol released in culture medium after 9 days, 100 μl of 2% product in DMSO in 2 ml medium on J0, J2, J3, J5, J7, 3 explants) is 0.114 mg/mL. Further, the “increase of the neo synthesis of elastin” value in data set [2] was “+16.7%”. Moreover, in data set [3] (10 ng/ml), the “Progerin % DMSO” value stood at 75.4%; the “Progerin Average” value is 837.7 ng/mg of protein; the “Progerin, individual values” was 880.7 ng/mg of protein and 801.5 ng/mg of protein and 830.7 ng/mg of protein; the “Progerin Difference (%)” value is listed as −24.6%. In data set [3] (100 ng/ml), the “Progerin % DMSO” value worked out at 52.9%; the “Progerin Average” value is 586.9* ng/mg of protein; the “Progerin, individual values” is 711.0 ng/mg of protein and 548.8 ng/mg of protein and 500.9 ng/mg of protein; the “Progerin Difference (%)” value is given as −47.1%. Besides, in data set [3] (500 ng/ml), the “Progerin % DMSO” value is recorded as 67.8%; the “Progerin Average” value was 752.5 ng/mg of protein; the “Progerin, individual values” was 967.8 ng/mg of protein and 727.4 ng/mg of protein and 562.4 ng/mg of protein; the “Progerin Difference (%)” value is reported as −32.2%. For the same compound, the “neo synthesis of progerin” value in data set [3] is recorded as “significantly decrease”.
Turning to `COc1cc(/C=C/C(=O)NCCc2ccc(O)cc2)cc(OC)c1OC(C)=O` [Compound 36, 4-acetoxy-3,5-dimethoxy-N-(4′-hydroxyphenylethyl)-cinnamamide], the melting point was found to be 99 °C. Also, in data set [4] (50 ng/ml), the “Procollagen % DMSO” value is 121.5%; the “Procollagen Average” value is reported as 63.7* pg/mg of protein; the “Procollagen, individual values” was 68.1 pg/mg of protein and 57.8 pg/mg of protein and 65.3 pg/mg of protein; the “Procollagen Difference (%)” value is given as 21.5%. Further, in data set [4] (500 ng/ml), the “Procollagen % DMSO” value is listed as 121.8%; the “Procollagen Average” value is 63.9* pg/mg of protein; the “Procollagen, individual values” was 59.2 pg/mg of protein and 65.1 pg/mg of protein and 67.2 pg/mg of protein; the “Procollagen Difference (%)” value is recorded as 21.8%. Further, in data set [4] (5000 ng/ml), the “Procollagen % DMSO” value was 129.0%; the “Procollagen Average” value is reported as 67.7* pg/mg of protein; the “Procollagen, individual values” was 73.8 pg/mg of protein and 64.8 pg/mg of protein and 64.4 pg/mg of protein; the “Procollagen Difference (%)” value came out at 29.0%. Also, in data set [2], the “increase of the neo synthesis of elastin” value was “+63.7%”. Further, in data set [3] (50 ng/ml), the “Progerin % DMSO” value was found to be 84.0%; the “Progerin Average” value is given as 932.6 ng/mg of protein; the “Progerin, individual values” was 1552.2 ng/mg of protein and 690.1 ng/mg of protein and 555.6 ng/mg of protein; the “Progerin Difference (%)” value is −16.0%. Besides, in data set [3] (500 ng/ml), the “Progerin % DMSO” value was 23.7%; the “Progerin Average” value was 263.6* ng/mg of protein; the “Progerin, individual values” was 249.8 ng/mg of protein and 288.8 ng/mg of protein and 252.1 ng/mg of protein; the “Progerin Difference (%)” value is on record as −76.3%. In data set [3] (5000 ng/ml), the “Progerin % DMSO” value is on record as 18.8%; the “Progerin Average” value is 208.2* ng/mg of protein; the “Progerin, individual values” was 215.8 ng/mg of protein and 200.8 ng/mg of protein and 207.9 ng/mg of protein; the “Progerin Difference (%)” value is recorded as −81.2%. The “neo synthesis of progerin” value in data set [3] is reported as “significantly decrease”.
